From patent US20240158446A1, “CYCLIC COMPOUND HAVING SELECTIVE INHIBITORY ACTION ON KRAS OVER HRAS AND NRAS” (CHUGAI SEIYAKU KABUSHIKI KAISHA, priority 2021, published 2024)
Read-outs that look alike come from different tables or passages of the source.

Experiments:
[1] = molecular target: GDP-bound KRAS wild-type protein (Homo sapiens, UniProt P01116); test: Binding to KRAS by surface plasmon resonance (SPR), Single Cycle Kinetics; conditions: GDP-bound KRAS wild-type protein, read-out: KRAS KD
[2] = molecular target: GDP-bound NRAS wild-type protein (Homo sapiens, UniProt P01111); test: Binding to NRAS by surface plasmon resonance (SPR), Single Cycle Kinetics; conditions: SPR, GDP-bound NRAS wild-type protein vs GDP-bound KRAS wild-type protein
[3] = molecular target: GDP-bound HRAS wild-type protein (Homo sapiens, UniProt P01112); test: Binding to HRAS by surface plasmon resonance (SPR), Single Cycle Kinetics; conditions: SPR, GDP-bound HRAS wild-type protein vs GDP-bound KRAS wild-type protein
[4] = SPR Single Cycle Kinetics, 1:1 binding model

Sequence of GDP-bound HRAS wild-type protein (P01112 whole entry): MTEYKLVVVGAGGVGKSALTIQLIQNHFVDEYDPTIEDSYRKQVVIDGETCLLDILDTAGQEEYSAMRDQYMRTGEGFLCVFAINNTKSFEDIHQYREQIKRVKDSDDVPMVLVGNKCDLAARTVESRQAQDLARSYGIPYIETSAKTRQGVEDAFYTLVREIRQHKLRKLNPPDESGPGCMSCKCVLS
Sequence of GDP-bound NRAS wild-type protein (P01111 whole entry): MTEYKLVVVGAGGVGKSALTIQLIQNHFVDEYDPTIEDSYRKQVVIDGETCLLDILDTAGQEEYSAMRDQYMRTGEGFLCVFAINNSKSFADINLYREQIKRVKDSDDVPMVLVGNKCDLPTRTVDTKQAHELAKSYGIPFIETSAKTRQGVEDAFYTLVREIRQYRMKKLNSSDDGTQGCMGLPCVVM
Sequence of GDP-bound KRAS wild-type protein (P01116 whole entry): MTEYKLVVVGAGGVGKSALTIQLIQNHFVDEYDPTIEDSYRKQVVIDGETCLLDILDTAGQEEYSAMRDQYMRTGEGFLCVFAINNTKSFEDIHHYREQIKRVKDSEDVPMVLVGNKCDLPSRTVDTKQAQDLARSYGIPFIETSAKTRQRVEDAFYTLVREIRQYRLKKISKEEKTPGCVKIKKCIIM

| Kd [1, 4] [nM] | Kd ([1]; SPR, Single Cycle Kinetics) [nM] | Structure (SMILES) | NRAS/KRAS (ratio of KD value with respect to NRAS to KD value with respect to KRAS) [2] | HRAS/KRAS (ratio of KD value with respect to HRAS to KD value with respect to KRAS) [3] | NRAS/KRAS (ratio of KD value for NRAS to KD value for KRAS) [2] | HRAS/KRAS (ratio of KD value for HRAS to KD value for KRAS) [3] |
| --- | --- | --- | --- | --- | --- | --- |
| 72 | – | CC[C@H](C)[C@@H]1NC(=O)[C@@H]2CCCCCN2C(=O)C[C@@H](C(=O)N2CCOCC2)N(C)C(=O)[C@H](C2CCCC2)N(C)C(=O)C2(CCCC2)NC(=O)[C@@H]2CCCN2C(=O)[C@H](CCc2cc(F)c(C(F)(F)F)c(F)c2)NC(=O)CN(C)C(=O)[C@H](Cc2ccc(C(F)(F)F)cc2)N2CCCCC[C@@H](C2=O)N(C)C(=O)CN(C)C1=O [PP0521] | B (a compound having 3 or more and less than 10 is denoted as B) | B (a compound having 3 or more and less than 10 is denoted as B) | – | – |
| – | 1.9 | CCO[C@@H]1C[C@H]2C(=O)NC3(CCC3)C(=O)N(C)[C@@H](C3CCCC3)C(=O)N(C)[C@H](C(=O)N3CCOCC3)CC(=O)N(C)[C@@H](Cc3ccccc3C)C(=O)N[C@@H]([C@@H](C)CC)C(=O)N(C)CC(=O)N(C)[C@H]3CCCCCN(C3=O)[C@@H](Cc3ccc(C(F)(F)F)cc3)C(=O)N(C)CC(=O)N[C@@H](CCc3cc(F)c(C(F)(F)F)c(F)c3)C(=O)N2C1 [PP0931] | – | – | A (a compound having 10 or more and less than 20 is denoted as A) | B (a compound having 3 or more and less than 10 is denoted as B) |
| – | 11 | CCO[C@@H]1C[C@H]2C(=O)NC3(CCC3)C(=O)N(C)[C@@H](C3CCCC3)C(=O)N(CCC3CCCC3)[C@H](C(=O)N3CCOCC3)CC(=O)N(C)[C@@H](CC)C(=O)N[C@@H]([C@@H](C)CC)C(=O)N(C)CC(=O)N(C)[C@H]3C/C=C\CCN(C3=O)[C@@H](Cc3ccc(C(F)(F)F)cc3)C(=O)N(C)CC(=O)N[C@@H](CCc3cc(F)c(C(F)(F)F)c(F)c3)C(=O)N2C1 [PP0981] | – | – | AA (a compound having 20 or more is denoted as AA) | A (a compound having 10 or more and less than 20 is denoted as A) |

Continued, molecule first:

| Structure (SMILES) | Kd [1, 4] [nM] | Kd ([1]; SPR, Single Cycle Kinetics) [nM] | NRAS/KRAS (ratio of KD value with respect to NRAS to KD value with respect to KRAS) [2] | HRAS/KRAS (ratio of KD value with respect to HRAS to KD value with respect to KRAS) [3] | NRAS/KRAS (ratio of KD value for NRAS to KD value for KRAS) [2] | HRAS/KRAS (ratio of KD value for HRAS to KD value for KRAS) [3] |
| --- | --- | --- | --- | --- | --- | --- |
| CCC[C@@H]1C[C@H]2C(=O)NC3(CCC3)C(=O)N(C)[C@@H](C3CCCC3)C(=O)N(C)[C@H](C(=O)N(C)C)CC(=O)N(C)[C@@H](CC(C)C)C(=O)N[C@@H]([C@@H](C)CC)C(=O)N(C)CC(=O)N(C)[C@H]3C/C=C\CCN(C3=O)[C@@H](Cc3ccc(C)cc3)C(=O)N(C)CC(=O)N[C@@H](CCc3cc(F)c(C(F)(F)F)c(F)c3)C(=O)N2C1 [PP2231] | – | 0.18 | – | – | A (a compound having 10 or more and less than 20 is denoted as A) | B (a compound having 3 or more and less than 10 is denoted as B) |
| CCO[C@@H]1C[C@H]2C(=O)NC3(CCC3)C(=O)N(C)[C@@H](C3CCCC3)C(=O)N(C)[C@H](C(=O)N(C)C)CC(=O)N(C)[C@@H](CC)C(=O)N[C@@H]([C@@H](C)CC)C(=O)N(CC)CC(=O)N(C)[C@H]3C/C=C\CCN(C3=O)[C@@H](Cc3ccc(C(F)(F)F)cc3)C(=O)N(C)CC(=O)N[C@@H](CCc3cc(F)c(C(F)(F)F)c(F)c3)C(=O)N2C1 [PP1052] | – | 0.25 | – | – | A (a compound having 10 or more and less than 20 is denoted as A) | A (a compound having 10 or more and less than 20 is denoted as A) |
| CC[C@H](C)[C@@H]1NC(=O)[C@H](CC(C)C)N(C)C(=O)C[C@@H](C(=O)N2CCOCC2)N(C)C(=O)[C@H](C2CCCC2)N(C)C(=O)C2(CCCC2)NC(=O)[C@@H]2C[C@H](O)CN2C(=O)[C@H](CCc2cc(F)c(C(F)(F)F)c(F)c2)NC(=O)CN(C)C(=O)[C@H](Cc2ccc(C(F)(F)F)cc2)N2CCCC[C@@H](C2=O)N(C)C(=O)CN(C)C1=O [PP0556] | 0.024 | – | C (A compound having a KD ratio of 0.1 or more and less than 3 is denoted as C) | B (a compound having 3 or more and less than 10 is denoted as B) | – | – |
